This passage reports Ki results from patent publication US8710065B2, “Tricyclic inhibitors of kinases” (AbbVie Inc., priority 2011, dated 2014).

The term Ki denotes the dissociation constant of the complex between target and ligand, obtained from inhibition or displacement.

Structures are written as SMILES. Some results are limits rather than exact numbers.

In this assay the target is T1, GST-tagged-Wee1 kinase (Homo sapiens, UniProt P30291).
T1 construct: purchased Carnabio (Carna Biosciences) 05-177
T1 sequence (P30291 whole entry): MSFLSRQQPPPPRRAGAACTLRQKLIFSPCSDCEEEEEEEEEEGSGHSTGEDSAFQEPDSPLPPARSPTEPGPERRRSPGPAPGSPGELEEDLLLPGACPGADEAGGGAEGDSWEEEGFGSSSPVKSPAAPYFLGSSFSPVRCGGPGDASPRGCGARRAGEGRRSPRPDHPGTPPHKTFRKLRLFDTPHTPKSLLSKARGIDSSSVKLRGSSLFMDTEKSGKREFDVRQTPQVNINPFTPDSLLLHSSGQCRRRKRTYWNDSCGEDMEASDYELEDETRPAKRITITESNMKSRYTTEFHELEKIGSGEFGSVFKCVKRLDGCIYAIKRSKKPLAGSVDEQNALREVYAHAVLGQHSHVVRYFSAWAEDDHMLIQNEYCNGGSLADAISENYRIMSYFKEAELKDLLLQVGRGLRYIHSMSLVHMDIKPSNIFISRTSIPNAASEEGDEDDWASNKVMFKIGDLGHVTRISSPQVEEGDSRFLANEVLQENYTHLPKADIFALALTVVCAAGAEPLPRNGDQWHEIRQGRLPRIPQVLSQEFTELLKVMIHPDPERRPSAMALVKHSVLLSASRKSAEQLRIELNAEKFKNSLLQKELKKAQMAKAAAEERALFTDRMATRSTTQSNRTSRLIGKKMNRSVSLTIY
Description: Wee1 time-resolved fluorescence equilibrium binding assay (displacement of Oregon Green-labeled ATP-competitive kinase probe). The settings on record: read-out: Wee-1 inhibition (Ki). A digest of the protocol:
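Ki values derive from competitive displacement, under equilibrium, of a fast-reversible ATP-site Oregon Green kinase probe from GST-tagged Wee1, detected by time-resolved fluorescence.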
Regarding `O=c1c2cnc(Nc3ccc(N4CCN5CCC[C@H]5C4)cc3)nc2n2ccnc2n1-c1ccccc1Cl` [Example 325, 6-(2-chlorophenyl)-2-({4-[(8aS)-hexahydropyrrolo[1,2-a]pyrazin-2(1H)-yl]phenyl}amino)imidazo[1,2-a]pyrimido[5,4-e]pyrimidin-5(6H)-one], the Ki is less than 10 nM.
Under `Cc1ccc(Nc2ncc3c(=O)n(-c4ccccc4Cl)c4nccn4c3n2)cc1` [Example 69, 6-(2-chlorophenyl)-2-[(4-methylphenyl)amino]imidazo[1,2-a]pyrimido[5,4-e]pyrimidin-5(6H)-one] stands 10 to 100 nM; under `O=c1c2cnc(Nc3ccc(N4CCCCC4)cc3)nc2n2ccnc2n1-c1ccccc1Cl` [Example 8, 6-(2-chlorophenyl)-2-{[4-(piperidin-1-yl)phenyl]amino}imidazo[1,2-a]pyrimido[5,4-e]pyrimidin-5(6H)-one], less than 10 nM.
For the molecule `CC(=O)N1Cc2cc(Nc3ncc4c(=O)n(-c5c(Cl)cc(F)cc5Cl)c5nccn5c4n3)ccc2C2(CC2)C1` [Example 165, 2-[(2′-acetyl-2′,3′-dihydro-1′H-spiro[cyclopropane-1,4′-isoquinolin]-7′-yl)amino]-6-(2,6-dichloro-4-fluorophenyl)imidazo[1,2-a]pyrimido[5,4-e]pyrimidin-5(6H)-one], the Ki is less than 10 nM.
In the case of `O=c1c2cnc(Nc3ccc(N4CCC(N5CCOCC5)CC4)cc3)nc2n2ccnc2n1-c1ccccc1Cl` [Example 236, 6-(2-chlorophenyl)-2-({4-[4-(morpholin-4-yl)piperidin-1-yl]phenyl}amino)imidazo[1,2-a]pyrimido[5,4-e]pyrimidin-5(6H)-one], the Ki was less than 10 nM.
Regarding `O=c1c2cnc(Nc3ccc(-c4cn5ccsc5n4)cc3)nc2n2ccnc2n1-c1ccccc1Cl` [Example 222, 6-(2-chlorophenyl)-2-{[4-(imidazo[2,1-b][1,3]thiazol-6-yl)phenyl]amino}imidazo[1,2-a]pyrimido[5,4-e]pyrimidin-5(6H)-one], the inhibition constant Ki lay within 10 to 100 nM.
As for `O=c1c2cnc(Nc3ccc(NCCN4CCOCC4)cc3)nc2n2ccnc2n1-c1ccccc1Cl` [Example 248, 6-(2-chlorophenyl)-2-[(4-{[2-(morpholin-4-yl)ethyl]amino}phenyl)amino]imidazo[1,2-a]pyrimido[5,4-e]pyrimidin-5(6H)-one], the inhibitory constant (Ki) was less than 10 nM.
Turning to `CN1CCc2ccc(Nc3ncc4c(=O)n(-c5ccccc5Cl)c5nccn5c4n3)cc2CC1` [Example 107, 6-(2-chlorophenyl)-2-[(3-methyl-2,3,4,5-tetrahydro-1H-3-benzazepin-7-yl)amino]imidazo[1,2-a]pyrimido[5,4-e]pyrimidin-5(6H)-one], the Ki was less than 10 nM.
As for `CC(=O)N1CCN(c2ccc(Nc3ncc4c(=O)n(-c5c(Cl)cccc5Cl)c5nccn5c4n3)cc2)CC1` [Example 214, 2-{[4-(4-acetylpiperazin-1-yl)phenyl]amino}-6-(2,6-dichlorophenyl)imidazo[1,2-a]pyrimido[5,4-e]pyrimidin-5(6H)-one], the Ki is less than 10 nM.
Take `O=c1c2cnc(Nc3ccc(CN4CCCC4)cc3)nc2n2ccnc2n1-c1ccccc1Cl` [Example 9, 6-(2-chlorophenyl)-2-{[4-(pyrrolidin-1-ylmethyl)phenyl]amino}imidazo[1,2-a]pyrimido[5,4-e]pyrimidin-5(6H)-one]: the inhibitory constant (Ki) was less than 10 nM.
For the molecule `CN1CCc2cc(Nc3ncc4c(=O)n(-c5ccccc5Cl)c5nccn5c4n3)ccc2C1(C)C` [Example 133, 6-(2-chlorophenyl)-2-[(1,1,2-trimethyl-1,2,3,4-tetrahydroisoquinolin-6-yl)amino]imidazo[1,2-a]pyrimido[5,4-e]pyrimidin-5(6H)-one], the Ki is less than 10 nM.
With `O=c1c2cnc(Nc3ccc4c(c3)CCCC4)nc2n2ccnc2n1-c1ccccc1Cl` [Example 5, 6-(2-chlorophenyl)-2-(5,6,7,8-tetrahydronaphthalen-2-ylamino)imidazo[1,2-a]pyrimido[5,4-e]pyrimidin-5(6H)-one], the inhibitory constant (Ki) lay within 10 to 100 nM.
Consider `CN1CCN(c2ccc(Nc3ncc4c(=O)n(-c5c(F)cc(F)cc5Cl)c5nccn5c4n3)cc2)CC1` [Example 186, 6-(2-chloro-4,6-difluorophenyl)-2-{[4-(4-methylpiperazin-1-yl)phenyl]amino}imidazo[1,2-a]pyrimido[5,4-e]pyrimidin-5(6H)-one], for which the Ki was less than 10 nM.
In the case of `O=c1c2cnc(Nc3ccc(N4CCCC4C(F)(F)F)cc3)nc2n2ccnc2n1-c1ccccc1Cl` (centres unmarked) [Example 289, 6-(2-chlorophenyl)-2-({4-[2-(trifluoromethyl)pyrrolidin-1-yl]phenyl}amino)imidazo[1,2-a]pyrimido[5,4-e]pyrimidin-5(6H)-one], the inhibition constant Ki lay in the range of 10 to 100 nM.
Consider `O=c1c2cnc(Nc3ccc(-c4csc(N5CCOCC5)n4)cc3)nc2n2ccnc2n1-c1ccccc1Cl` [Example 360, 6-(2-chlorophenyl)-2-({4-[2-(morpholin-4-yl)-1,3-thiazol-4-yl]phenyl}amino)imidazo[1,2-a]pyrimido[5,4-e]pyrimidin-5(6H)-one], for which the Ki is 10 to 100 nM.
As to `CS(=O)(=O)N1Cc2cc(Nc3ncc4c(=O)n(-c5c(Cl)cc(F)cc5Cl)c5nccn5c4n3)ccc2C2(CC2)C1` [Example 172, 6-(2,6-dichloro-4-fluorophenyl)-2-{[2′-(methylsulfonyl)-2′,3′-dihydro-1′H-spiro[cyclopropane-1,4′-isoquinolin]-7′-yl]amino}imidazo[1,2-a]pyrimido[5,4-e]pyrimidin-5(6H)-one], the inhibition constant (Ki) is less than 10 nM.
For the molecule `COc1cccc(-n2c(=O)c3cnc(Nc4ccccc4)nc3n3ccnc23)c1C` [Example 344, 6-(3-methoxy-2-methylphenyl)-2-(phenylamino)imidazo[1,2-a]pyrimido[5,4-e]pyrimidin-5(6H)-one], the Ki was greater than 100 nM.
On to `CNS(=O)(=O)Cc1ccc(Nc2ncc3c(=O)n(-c4ccccc4Cl)c4nccn4c3n2)cc1` [Example 293, 1-(4-{[6-(2-chlorophenyl)-5-oxo-5,6-dihydroimidazo[1,2-a]pyrimido[5,4-e]pyrimidin-2-yl]amino}phenyl)-N-methylmethanesulfonamide], for which the Ki was 10 to 100 nM.
Take `CC1(C)CN(Cc2cccnc2)Cc2cc(Nc3ncc4c(=O)n(-c5ccccc5Cl)c5nccn5c4n3)ccc21` [Example 131, 6-(2-chlorophenyl)-2-{[4,4-dimethyl-2-(pyridin-3-ylmethyl)-1,2,3,4-tetrahydroisoquinolin-7-yl]amino}imidazo[1,2-a]pyrimido[5,4-e]pyrimidin-5(6H)-one]: the inhibitory constant (Ki) was less than 10 nM.
For `O=C1CCCN1CCCNc1ccc(Nc2ncc3c(=O)n(-c4ccccc4Cl)c4nccn4c3n2)cc1` [Example 253, 6-(2-chlorophenyl)-2-[(4-{[3-(2-oxopyrrolidin-1-yl)propyl]amino}phenyl)amino]imidazo[1,2-a]pyrimido[5,4-e]pyrimidin-5(6H)-one] the value was less than 10 nM; for `O=c1c2cnc(Nc3ccc(N4CCN(c5ccccn5)CC4)cc3)nc2n2ccnc2n1-c1ccccc1Cl` [Example 247, 6-(2-chlorophenyl)-2-({4-[4-(pyridin-2-yl)piperazin-1-yl]phenyl}amino)imidazo[1,2-a]pyrimido[5,4-e]pyrimidin-5(6H)-one], less than 10 nM; for `CN1Cc2cc(Nc3ncc4c(=O)n(-c5ccccc5Cl)c5nccn5c4n3)ccc2C2(CC2)C1` [Example 4, 6-(2-chlorophenyl)-2-[(2′-methyl-2′,3′-dihydro-1′H-spiro[cyclopropane-1,4′-isoquinolin]-7′-yl)amino]imidazo[1,2-a]pyrimido[5,4-e]pyrimidin-5(6H)-one], less than 10 nM.
For `CC(=O)N1CC2(CCN(c3ccc(Nc4ncc5c(=O)n(-c6c(Cl)cccc6Cl)c6nccn6c5n4)cc3)CC2)C1` [Example 298, 2-{[4-(2-acetyl-2,7-diazaspiro[3.5]non-7-yl)phenyl]amino}-6-(2,6-dichlorophenyl)imidazo[1,2-a]pyrimido[5,4-e]pyrimidin-5(6H)-one] the value was less than 10 nM; for `O=C(C1CC1)N1Cc2cc(Nc3ncc4c(=O)n(-c5c(Cl)cc(F)cc5Cl)c5nccn5c4n3)ccc2C2(CC2)C1` [Example 171, 2-{[2′-(cyclopropylcarbonyl)-2′,3′-dihydro-1′H-spiro[cyclopropane-1,4′-isoquinolin]-7′-yl]amino}-6-(2,6-dichloro-4-fluorophenyl)imidazo[1,2-a]pyrimido[5,4-e]pyrimidin-5(6H)-one], less than 10 nM; for `O=c1c2cnc(Nc3ccc(N4CCNCC4)c(C(F)(F)F)c3)nc2n2ccnc2n1-c1c(Cl)cccc1Cl` [Example 156, 6-(2,6-dichlorophenyl)-2-{[4-(piperazin-1-yl)-3-(trifluoromethyl)phenyl]amino}imidazo[1,2-a]pyrimido[5,4-e]pyrimidin-5(6H)-one], less than 10 nM.
For `CN1Cc2cc(Nc3ncc4c(=O)n(-c5c(Cl)cc(F)cc5Cl)c5nccn5c4n3)ccc2C2(CC2)C1` [Example 125, 6-(2,6-dichloro-4-fluorophenyl)-2-[(2′-methyl-2′,3′-dihydro-1′H-spiro[cyclopropane-1,4′-isoquinolin]-7′-yl)amino]imidazo[1,2-a]pyrimido[5,4-e]pyrimidin-5(6H)-one], the inhibitory constant (Ki) was less than 10 nM.
Regarding `CC(=O)N1CCc2cc(Nc3ncc4c(=O)n(-c5c(Cl)cccc5Cl)c5nccn5c4n3)ccc2C1` [Example 331, 2-[(2-acetyl-1,2,3,4-tetrahydroisoquinolin-6-yl)amino]-6-(2,6-dichlorophenyl)imidazo[1,2-a]pyrimido[5,4-e]pyrimidin-5(6H)-one], the Ki is less than 10 nM.
For `CC(C)c1cc(Nc2ncc3c(=O)n(-c4c(Cl)cccc4Cl)c4nccn4c3n2)ccc1N1CCN(C)CC1` [Example 176, 6-(2,6-dichlorophenyl)-2-{[4-(4-methylpiperazin-1-yl)-3-(propan-2-yl)phenyl]amino}imidazo[1,2-a]pyrimido[5,4-e]pyrimidin-5(6H)-one], the Ki is less than 10 nM.
For `O=c1c2cnc(Nc3ccc4cn[nH]c4c3)nc2n2ccnc2n1-c1c(Cl)cccc1Cl` [Example 199, 6-(2,6-dichlorophenyl)-2-(1H-indazol-6-ylamino)imidazo[1,2-a]pyrimido[5,4-e]pyrimidin-5(6H)-one], the Ki is less than 10 nM.
